Experimental data taken from PMC9945734 (BMC Medicine, 2023).
Structures can show the parent of a compound that is named as a salt. Where two headings read alike, the source gives them in different places.

Test system: PC-3-KQ cells
Assay: 3D spheroid invasion assay and screening of FDA-approved drugs
Format: cell-based, human
Design: activity: dose or concentration left out as unconfirmed
Procedure: The invasion assay was performed as previously described. […] The plates were then centrifuged at 320 g for 4 min to cluster cells in the bottom of wells and incubated for 3 days. On the fourth day, 40 μL medium was removed from each well, 40 μL of the matrigel-medium mixture was added to each well, and cells were cultured for another 3 days. […] At the end of the incubation, images were taken using a phase contrast microscope (Eclipse Ti2, Nikon, Tokyo, Japan) with 10× object lenses, and the total area of cells and the core sphere area of cells (Fig. 1a) were measured using the Image J software. The invading area was calculated using the following formula: invasion area = total area of cells – core sphere area.
For drug screening, drugs were added to the matrigel-medium mixture when replacing the culture medium on day 4. For the initial round of screening, a final concentration of 10 μM was used for all drugs. Multiple drug concentrations were used for the second round of screening, including 0, 0.001, 0.01, 0.1, 1, and 10 μM. Duplicate wells were repeated for each concentration.

[1] = 0.01 μM (first column so headed), secondary screening of 87 hit compounds (Table S1), compared to vehicle control
[2] = 0.01 μM (first column so headed), third screening of 25 hit compounds (Table S2), compared to vehicle control
[3] = 0.01 μM (second column so headed), secondary screening of 87 hit compounds (Table S1), compared to vehicle control
[4] = 0.01 μM (second column so headed), third screening of 25 hit compounds (Table S2), compared to vehicle control
[5] = 0.1 μM, secondary screening of 87 hit compounds (Table S1), compared to vehicle control
[6] = 0.1 μM, third screening of 25 hit compounds (Table S2), compared to vehicle control
[7] = 1 μM, secondary screening of 87 hit compounds (Table S1), compared to vehicle control
[8] = 1 μM, third screening of 25 hit compounds (Table S2), compared to vehicle control
[9] = 10 μM, secondary screening of 87 hit compounds (Table S1), compared to vehicle control
[10] = 10 μM, third screening of 25 hit compounds (Table S2), compared to vehicle control
[11] = Homo sapiens, 72 h, 0.01 μM (first column so headed), secondary screening of 87 hit compounds (Table S1), compared to vehicle control, read-out: Invasion rates (%) of each drug’s multiple concentrations
[12] = Homo sapiens, 72 h, 0.01 μM (first column so headed), third screening of 25 hit compounds (Table S2), compared to vehicle control, read-out: Invasion rates (%) of each drug’s multiple concentrations
[13] = Homo sapiens, 72 h, 0.01 μM (second column so headed), secondary screening of 87 hit compounds (Table S1), compared to vehicle control, read-out: Invasion rates (%) of each drug’s multiple concentrations
[14] = Homo sapiens, 72 h, 0.01 μM (second column so headed), third screening of 25 hit compounds (Table S2), compared to vehicle control, read-out: Invasion rates (%) of each drug’s multiple concentrations
[15] = Homo sapiens, 72 h, 0.1 μM, secondary screening of 87 hit compounds (Table S1), compared to vehicle control, read-out: Invasion rates (%) of each drug’s multiple concentrations
[16] = Homo sapiens, 72 h, 0.1 μM, third screening of 25 hit compounds (Table S2), compared to vehicle control, read-out: Invasion rates (%) of each drug’s multiple concentrations
[17] = Homo sapiens, 72 h, 1 μM, secondary screening of 87 hit compounds (Table S1), compared to vehicle control, read-out: Invasion rates (%) of each drug’s multiple concentrations
[18] = Homo sapiens, 72 h, 1 μM, third screening of 25 hit compounds (Table S2), compared to vehicle control, read-out: Invasion rates (%) of each drug’s multiple concentrations
[19] = Homo sapiens, 72 h, 10 μM, secondary screening of 87 hit compounds (Table S1), compared to vehicle control, read-out: Invasion rates (%) of each drug’s multiple concentrations
[20] = Homo sapiens, 72 h, 10 μM, third screening of 25 hit compounds (Table S2), compared to vehicle control, read-out: Invasion rates (%) of each drug’s multiple concentrations

| Compound | activity at 0.01 µM [11] [%] | activity at 0.01 µM [13] [%] | activity at 0.1 µM [15] [%] | activity at 1 µM [17] [%] | activity at 10 µM [19] [%] | other results |
| --- | --- | --- | --- | --- | --- | --- |
| CC(=O)[C@]1(O)Cc2c(O)c3c(c(O)c2[C@@H](O[C@H]2C[C@H](N)[C@H](O)[C@H](C)O2)C1)C(=O)c1ccccc1C3=O.Cl [Idarubicin (hydrochloride)] | – | – | – | – | – | Invasion rates (%) of each drug’s multiple concentrations (μM) [1]: 80.06%; Invasion rates (%) of each drug’s multiple concentrations (μM) [2]: 95.32%; Invasion rates (%) of each drug’s multiple concentrations (μM) [3]: 88.67%; Invasion rates (%) of each drug’s multiple concentrations (μM) [4]: 98.46%; Invasion rates (%) of each drug’s multiple concentrations (μM) [5]: 83.45%; Invasion rates (%) of each drug’s multiple concentrations (μM) [6]: 100.06%; Invasion rates (%) of each drug’s multiple concentrations (μM) [7]: 7.74%; Invasion rates (%) of each drug’s multiple concentrations (μM) [8]: 1.25%; Invasion rates (%) of each drug’s multiple concentrations (μM) [9]: 3.85%; Invasion rates (%) of each drug’s multiple concentrations (μM) [10]: 1.34% |
| CC(C)C[C@H](NC(=O)CNC(=O)c1cc(Cl)ccc1Cl)B1OC(=O)C(CC(=O)O)(CC(=O)O)O1 [Ixazomib citrate] | 69.8 | 81.3 | 26.9 | 1.95 | 1.55 | activity at 0.01 µM [12]: 100%; activity at 0.01 µM [14]: 96.7%; activity at 0.1 µM [16]: 91.4%; activity at 1 µM [18]: 54.2%; activity at 10 µM [20]: 0.4% |
| CC(C)C[C@H](NC(=O)CNC(=O)c1cc(Cl)ccc1Cl)B(O)O [Ixazomib] | 35.2 | 76.3 | 22.3 | 3.86 | 1.01 | activity at 0.01 µM [12]: 83.1%; activity at 0.01 µM [14]: 95.7%; activity at 0.1 µM [16]: 76.1%; activity at 1 µM [18]: 0.53%; activity at 10 µM [20]: 0.3% |
| CO[C@@H]1[C@@H](O[C@@H]2O[C@H](C)[C@@H](O[C@H]3C[C@@](C)(O)[C@@H](OC(=O)CC(C)C)[C@H](C)O3)[C@H](N(C)C)[C@H]2O)[C@@H](CC=O)C[C@@H](C)[C@@H](O)/C=C/C=C/C[C@@H](C)OC(=O)C[C@H]1OC(C)=O [Josamycin] | 88.6 | 86.9 | 86.7 | 78 | 15.5 | – |
| CC(=O)NC[C@H]1CN(c2ccc(N3CCOCC3)c(F)c2)C(=O)O1 [Linezolid] | 94.4 | 96.6 | 80 | 64.5 | 3.51 | – |
| N[C@@H](Cc1cc(I)c(Oc2ccc(O)c(I)c2)c(I)c1)C(=O)O [Liothyronine] | 93.5 | 97.4 | 93.3 | 92.5 | 50.6 | – |
| COc1ccc(CN(CCN(C)C)c2ccccn2)cc1 [Mepyramine maleate] | 101 | 98.3 | 99.1 | 97.9 | 48.9 | – |
| C=C1c2cccc(O)c2C(O)=C2C(=O)[C@]3(O)C(O)=C(C(N)=O)C(=O)[C@@H](N(C)C)[C@@H]3[C@@H](O)[C@H]12.Cl [Methacycline (hydrochloride)] | – | – | – | – | – | Invasion rates (%) of each drug’s multiple concentrations (μM) [1]: 68.21%; Invasion rates (%) of each drug’s multiple concentrations (μM) [2]: 93.06%; Invasion rates (%) of each drug’s multiple concentrations (μM) [3]: 75.44%; Invasion rates (%) of each drug’s multiple concentrations (μM) [4]: 92.10%; Invasion rates (%) of each drug’s multiple concentrations (μM) [5]: 57.31%; Invasion rates (%) of each drug’s multiple concentrations (μM) [6]: 89.39%; Invasion rates (%) of each drug’s multiple concentrations (μM) [7]: 4.98%; Invasion rates (%) of each drug’s multiple concentrations (μM) [8]: 5.12%; Invasion rates (%) of each drug’s multiple concentrations (μM) [9]: 3.07%; Invasion rates (%) of each drug’s multiple concentrations (μM) [10]: 2.20% |
| Cc1ncc([N+](=O)[O-])n1CCO [Metronidazole] | 93.6 | 93.9 | 94.1 | 85.7 | 10.1 | – |
| CO[C@@H]1[C@H](N(C)C(=O)c2ccccc2)C[C@H]2O[C@]1(C)n1c3ccccc3c3c4c(c5c6ccccc6n2c5c31)C(=O)NC4 [Midostaurin] | 97.5 | 98.7 | 96 | 95.8 | 34.3 | – |
| CN(C)c1ccc(O)c2c1C[C@H]1C[C@H]3[C@H](N(C)C)C(=O)C(C(N)=O)=C(O)[C@@]3(O)C(=O)C1=C2O.Cl [Minocycline (hydrochloride)] | – | – | – | – | – | Invasion rates (%) of each drug’s multiple concentrations (μM) [1]: 87.07%; Invasion rates (%) of each drug’s multiple concentrations (μM) [3]: 98.27%; Invasion rates (%) of each drug’s multiple concentrations (μM) [5]: 80.93%; Invasion rates (%) of each drug’s multiple concentrations (μM) [7]: 62.17%; Invasion rates (%) of each drug’s multiple concentrations (μM) [9]: 5.40% |
| CO[C@@]12[C@H](COC(N)=O)C3=C(C(=O)C(C)=C(N)C3=O)N1C[C@@H]1N[C@@H]12 [Mitomycin C] | 4.12 | 39.7 | 4.9 | 3.56 | 2.5 | activity at 0.01 µM [12]: 41.6%; activity at 0.01 µM [14]: 93.2%; activity at 0.1 µM [16]: 2.22%; activity at 1 µM [18]: 1.49%; activity at 10 µM [20]: 0.24%; inhibition at 0.1 µM (Homo sapiens, at 0.1 μM, read-out: inhibition of cell invasion): > 50% |
| Cl.Cl.O=C1c2c(O)ccc(O)c2C(=O)c2c(NCCNCCO)ccc(NCCNCCO)c21 [Mitoxantrone (dihydrochloride)] | – | – | – | – | – | Invasion rates (%) of each drug’s multiple concentrations (μM) [1]: 88.48%; Invasion rates (%) of each drug’s multiple concentrations (μM) [3]: 95.77%; Invasion rates (%) of each drug’s multiple concentrations (μM) [5]: 89.03%; Invasion rates (%) of each drug’s multiple concentrations (μM) [7]: 87.29%; Invasion rates (%) of each drug’s multiple concentrations (μM) [9]: 31.96% |
| Cc1ncc([N+](=O)[O-])n1CC(O)CN1CCOCC1 (stereo not shown) [Morinidazole] | 83.3 | 89.7 | 75.5 | 60 | 4 | – |
| C/C(=C\C(=O)OCCCCCCCCC(=O)O)C[C@@H]1OC[C@H](C[C@@H]2O[C@H]2[C@@H](C)[C@H](C)O)[C@@H](O)[C@H]1O [Mupirocin] | 95.2 | 98 | 95.3 | 80 | 5.95 | – |
| CC1CCc2c(N3CCC(O)CC3)c(F)cc3c(=O)c(C(=O)O)cn1c23 (stereo not shown) [Nadifloxacin] | 102 | 104 | 101 | 100 | 1.03 | – |
| O=C(N/N=C/c1ccc([N+](=O)[O-])o1)c1ccc(O)cc1 [Nifuroxazide] | 68.1 | 86.4 | 50.2 | 9.13 | 2.06 | activity at 0.01 µM [12]: 97.2%; activity at 0.01 µM [14]: 94.3%; activity at 0.1 µM [16]: 86.5%; activity at 1 µM [18]: 7.31%; activity at 10 µM [20]: 1.51% |
| CC1CS(=O)(=O)CCN1/N=C/c1ccc([N+](=O)[O-])o1 (stereo not shown) [Nifurtimox] | 96.2 | 96.2 | 78.6 | 32.4 | 1.95 | activity at 0.01 µM [12]: 97%; activity at 0.01 µM [14]: 97.5%; activity at 0.1 µM [16]: 93.5%; activity at 1 µM [18]: 5.05%; activity at 10 µM [20]: 0.53% |
| COC(=O)c1ccc2c(c1)NC(=O)/C2=C(\Nc1ccc(N(C)C(=O)CN2CCN(C)CC2)cc1)c1ccccc1 [Nintedanib] | 98.1 | 98.3 | 97.5 | 95.2 | 36.2 | – |
| NC(=O)N/N=C/c1ccc([N+](=O)[O-])o1 [Nitrofurazone] | 94.8 | – | 80.4 | 70.7 | 6.3 | activity (Homo sapiens, 72 h, secondary screening of 87 hit compounds (Table S1), compared to vehicle control, read-out: Invasion rates (%) of each drug’s multiple concentrations): 98.8% |
